Reference: patent publication US20080176862A1, “New Compounds 617” (ASTRAZENECA AB, priority 2006, published 2008)
Structures can show the parent of a compound that is named as a salt.

Each compound was assayed against T1, human β-Secretase (soluble part, AA1-AA460; sBACE-Fc) (Homo sapiens, UniProt P56817) (assay: TR-FRET assay). Conditions: substrate (Europium)CEVNLDAEFK(Qsy7) 100 nM, pH 4.5, 15 min at RT; read-out: IC50 (nM) in TR-FRET assay.
T1 construct: The soluble part of the human β-Secretase (AA1-AA460) was cloned into the ASP2-Fc10-1-IRES-GFP-neoK mammalian expression vector; made in house
T1 sequence (P56817 22-460): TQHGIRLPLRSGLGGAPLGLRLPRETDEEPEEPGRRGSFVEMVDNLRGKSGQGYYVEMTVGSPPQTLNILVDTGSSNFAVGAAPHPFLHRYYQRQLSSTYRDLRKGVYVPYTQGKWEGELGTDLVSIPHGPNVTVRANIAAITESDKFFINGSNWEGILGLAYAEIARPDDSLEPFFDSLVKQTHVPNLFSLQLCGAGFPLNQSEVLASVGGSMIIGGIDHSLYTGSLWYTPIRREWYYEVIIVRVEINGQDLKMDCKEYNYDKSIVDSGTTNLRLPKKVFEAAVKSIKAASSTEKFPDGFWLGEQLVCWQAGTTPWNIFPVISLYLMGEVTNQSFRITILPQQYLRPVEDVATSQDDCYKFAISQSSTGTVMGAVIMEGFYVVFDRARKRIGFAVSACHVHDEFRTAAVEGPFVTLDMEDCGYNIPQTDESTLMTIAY
Assay type: biochemical
Method: The enzyme used in the IGEN Cleavage-, Fluorescent-, TR-FRET- and BiaCore assays is described as follows:
The soluble part of the human β-Secretase (AA1-AA460) was cloned into the ASP2-Fc10-1-IRES-GFP-neoK mammalian expression vector. The gene was fused to the Fc domain of IgG1 (affinity tag) and stably cloned into HEK 293 cells. Purified sBACE-Fc is stored in Tris buffer, pH 9.2 and has a purity of 95%.
Enzyme was diluted to 6 μg/mL and the substrate (Europium)[…](Qsy7) to 200 nM in reaction buffer (NaAcetate, chaps, triton x-100, EDTA pH 4.5). Compounds were diluted to the desired concentration in dimethyl sulfoxide (final dimethyl sulfoxide concentration in assay is 5%). […] Enzyme (9 μL) and 1 μL of compound in dimethyl sulfoxide was added to the plate, mixed and pre-incubated for 10 min. Substrate (10 μL) was added and the reaction proceeded in the dark for 15 min at RT. The reaction was stopped with the addition of 7 μL NaAcetate, pH 9. The fluorescence of the product was measured on a Victor II plate reader with an excitation wavelength of 340 nm and an emission wavelength of 615 nm. […] The dimethyl sulfoxide control defined the 100% activity level and 0% activity was defined by exclusion of the enzyme (using reaction buffer instead).

IC50 [nM]	Structure (SMILES)
26	CN1C(=O)C(c2cccc(OS(=O)(=O)c3cn(C)cn3)c2)(c2ccc(F)c(-c3cncnc3)c2)N=C1N (stereo not drawn) [Example 243, 3-[2-Amino-4-(4-fluoro-3-pyrimidin-5-ylphenyl)-1-methyl-5-oxo-4,5-dihydro-1H-imidazol-4-yl]phenyl 1-methyl-1H-imidazole-4-sulfonate]
299	CN1C(=O)C(c2cccc(OS(=O)(=O)c3ccc4c(c3)oc(=O)n4C)c2)(c2ccc(F)c(Br)c2)N=C1N (stereo not drawn) [Example 229, 3-[2-Amino-4-(3-bromo-4-fluorophenyl)-1-methyl-5-oxo-4,5-dihydro-1H-imidazol-4-yl]phenyl 3-methyl-2-oxo-2,3-dihydro-1,3-benzoxazole-6-sulfonate]
1180	CN1C(=O)C(c2ccc(F)c(-c3cc(Cl)cc(OS(C)(=O)=O)c3)c2)(C2CCOCC2)N=C1N (stereo not drawn) [Example 193, 5′-[2-Amino-1-methyl-5-oxo-4-(tetrahydro-2H-pyran-4-yl)-4,5-dihydro-1H-imidazol-4-yl]-5-chloro-2′-fluorobiphenyl-3-yl methanesulfonate hydrochloride]
859	CN1C(=O)C(c2cccc(OS(=O)(=O)c3ccccn3)c2)(c2ccc(F)c(Br)c2)N=C1N (stereo not drawn) [Example 226, 3-[2-Amino-4-(3-bromo-4-fluorophenyl)-1-methyl-5-oxo-4,5-dihydro-1H-imidazol-4-yl]phenyl pyridine-2-sulfonate]
912	CCN1C(=O)C(c2ccc(OS(C)(=O)=O)cc2)(c2ccc(F)c(-c3cccc(Cl)c3)c2)N=C1N (stereo not drawn) [Example 164, 4-[2-Amino-4-(3′-chloro-6-fluorobiphenyl-3-yl)-1-ethyl-5-oxo-4,5-dihydro-1H-imidazol-4-yl]phenyl methanesulfonate]
788	CN1C(=O)C(c2cccc(OS(=O)(=O)c3ccc4c(c3)CCC4)c2)(c2ccc(F)c(Br)c2)N=C1N (stereo not drawn) [Example 228, 3-[2-Amino-4-(3-bromo-4-fluorophenyl)-1-methyl-5-oxo-4,5-dihydro-1H-imidazol-4-yl]phenyl indane-5-sulfonate]

The remaining lines, values behind:

Structure (SMILES)	IC50 [nM]
CN1C(=O)C(c2ccc(OS(C)(=O)=O)cc2)(c2ccc(F)c(/C=C/C3CC3)c2)N=C1N (stereo not drawn) [Example 78, 4-(2-Amino-4-{3-[(E)-2-cyclopropylvinyl]-4-fluorophenyl}-1-methyl-5-oxo-4,5-dihydro-1H-imidazol-4-yl)phenyl methanesulfonate]	725
CCCS(=O)(=O)Oc1cccc(C2(c3ccc(F)c(-c4cc(Cl)cc(OC)c4)c3)N=C(N)N(C)C2=O)c1 (stereo not drawn) [Example 99, 3-[2-Amino-4-(3′-chloro-6-fluoro-5′-methoxybiphenyl-3-yl)-1-methyl-5-oxo-4,5-dihydro-1H-imidazol-4-yl]phenyl propane-1-sulfonate]	330
COc1ccc(F)c(-c2cncc(C3(c4ccc(OS(C)(=O)=O)cc4)N=C(N)N(C)C3=O)c2)c1 (stereo not drawn) [Example 21, 4-{2-Amino-4-[5-(2-fluoro-5-methoxyphenyl)pyridin-3-yl]-1-methyl-5-oxo-4,5-dihydro-1H-imidazol-4-yl}phenyl methanesulfonate 0.5 acetate]	1910
COc1cc(Cl)cc(-c2cc(C3(c4cccc(OS(C)(=O)=O)c4)N=C(N)N(C)C3=O)ccc2F)c1 (stereo not drawn) [Example 92, 3-[2-Amino-4-(3′-chloro-6-fluoro-5′-methoxybiphenyl-3-yl)-1-methyl-5-oxo-4,5-dihydro-1H-imidazol-4-yl]phenyl methanesulfonate]	179
CCCS(=O)(=O)Oc1cccc(C2(c3ccc(F)c(-c4cncc(OC)c4)c3)N=C(N)N(C)C2=O)c1 (stereo not drawn) [Example 130, 3-{2-Amino-4-[4-fluoro-3-(5-methoxypyridin-3-yl)phenyl]-1-methyl-5-oxo-4,5-dihydro-1H-imidazol-4-yl}phenyl propane-1-sulfonate hydrochloride]	59
CCN1C(=O)C(c2ccc(OS(C)(=O)=O)cc2)(c2ccc(F)c(-c3cncnc3)c2)N=C1N (stereo not drawn) [Example 162, 4-[2-Amino-4-(4-fluoro-3-pyrimidin-5-ylphenyl)-1-ethyl-5-oxo-4,5-dihydro-1H-imidazol-4-yl]phenyl methanesulfonate]	682
